Source: PubChem BioAssay AID1963973 (Molecular Pharmacology Branch, DTP, NCI, 2024)
pIC50: −log10 of the molar value. Values belong to the compound of their own block, whether it stands above or below them.

Tested on: 883617-216-R-J1-PDC tumor spheroids, viability
Assay: Anticancer human tumor 883617-216-R-J1-PDC patient-derived bladder carcinoma cell line growth inhibition [PI3K]
Conditions: spheroids with HUVEC and MSC; for pIC50: curve of first compound; for viability, T/C: stronger effect = lower value
Outline: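 Combination activity was assessed by viability in multicellular tumor spheroids carrying HUVEC and MSC components. Agents were tested with PI3K inhibitors from a Cmax-based top dose (or 10 microM) downward in half-log increments.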

[1] = second compound 0.0316 µM, first compound 0.0316 µM
[2] = second compound 0.0316 µM, first compound 0.1 µM
[3] = second compound 0.0316 µM, first compound 0.316 µM
[4] = second compound 0.0316 µM, first compound 1 µM
[5] = second compound 0.0316 µM, first compound 3.16 µM
[6] = second compound 0.0316 µM, first compound 10 µM
[7] = second compound 0.1 µM, first compound 0.0316 µM
[8] = second compound 0.1 µM, first compound 0.1 µM
[9] = second compound 0.1 µM, first compound 0.316 µM
[10] = second compound 0.1 µM, first compound 1 µM
[11] = second compound 0.1 µM, first compound 3.16 µM
[12] = second compound 0.1 µM, first compound 10 µM
[13] = second compound 0.316 µM, first compound 0.0316 µM
[14] = second compound 0.316 µM, first compound 0.1 µM
[15] = second compound 0.316 µM, first compound 0.316 µM
[16] = second compound 0.316 µM, first compound 1 µM
[17] = second compound 0.316 µM, first compound 3.16 µM
[18] = second compound 0.316 µM, first compound 10 µM
[19] = second compound 1 µM, first compound 0.0316 µM
[20] = second compound 1 µM, first compound 0.1 µM
[21] = second compound 1 µM, first compound 0.316 µM
[22] = second compound 1 µM, first compound 1 µM
[23] = second compound 1 µM, first compound 3.16 µM
[24] = second compound 1 µM, first compound 10 µM
[25] = second compound 3.16 µM, first compound 0.0316 µM
[26] = second compound 3.16 µM, first compound 0.1 µM
[27] = second compound 3.16 µM, first compound 0.316 µM
[28] = second compound 3.16 µM, first compound 1 µM
[29] = second compound 3.16 µM, first compound 3.16 µM
[30] = second compound 3.16 µM, first compound 10 µM
[31] = second compound 10 µM, first compound 0.0316 µM
[32] = second compound 10 µM, first compound 0.1 µM
[33] = second compound 10 µM, first compound 0.316 µM
[34] = second compound 10 µM, first compound 1 µM
[35] = second compound 10 µM, first compound 3.16 µM
[36] = second compound 10 µM, first compound 10 µM
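Note: spheroids exposed to agents for 7 days before the viability read.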

- pIC50 (second compound 0.0316 µM): < 5.00
- pIC50 (second compound 0.1 µM): 5.18
- pIC50 (second compound 0.316 µM): > 7.50
- pIC50 (second compound 1 µM): > 7.50
- pIC50 (second compound 3.16 µM): > 7.50
- pIC50 (second compound 10 µM): > 7.50
Compound: C#Cc1c(F)ccc2cc(O)cc(-c3ncc4c(N5CC6CCC(C5)N6)nc(OCC56CCCN5CC(F)C6)nc4c3F)c12 (stereo unspecified) + Cc1nc(NC(=O)N2CCCC2C(N)=O)sc1-c1ccnc(C(C)(C)C(F)(F)F)c1
- viability, T/C [1]: 81.1%
- viability, T/C [2]: 89.1%
- viability, T/C [3]: 77.6%
- viability, T/C [4]: 80.9%
- viability, T/C [5]: 79.7%
- viability, T/C [6]: 57.5%
- viability, T/C [7]: 69.8%
- viability, T/C [8]: 66.5%
- viability, T/C [9]: 76.8%
- viability, T/C [10]: 74.2%
- viability, T/C [11]: 63.1%
- viability, T/C [12]: 41.1%
- viability, T/C [13]: 53.8%
- viability, T/C [14]: 47.3%
- viability, T/C [15]: 45.5%
- viability, T/C [16]: 46.5%
- viability, T/C [17]: 43.7%
- viability, T/C [18]: 24.7%
- viability, T/C [19]: 28.2%
- viability, T/C [20]: 28.3%
- viability, T/C [21]: 26.8%
- viability, T/C [22]: 29%
- viability, T/C [23]: 24.7%
- viability, T/C [24]: 19.9%
- viability, T/C [25]: 15.2%
- viability, T/C [26]: 13.1%
- viability, T/C [27]: 12.6%
- viability, T/C [28]: 14.5%
- viability, T/C [29]: 15.3%
- viability, T/C [30]: 8.2%
- viability, T/C [31]: 7.88%
- viability, T/C [32]: 7.4%
- viability, T/C [33]: 5.56%
- viability, T/C [34]: 7.83%
- viability, T/C [35]: 5.24%
- viability, T/C [36]: 0.61%

- pIC50 (second compound 0.0316 µM): < 5.00
- pIC50 (second compound 0.1 µM): < 5.00
- pIC50 (second compound 0.316 µM): > 7.50
- pIC50 (second compound 1 µM): > 7.50
- pIC50 (second compound 3.16 µM): > 7.50
- pIC50 (second compound 10 µM): > 7.50
Compound: CC(Cn1ccc(-c2ccc(C#N)c(Cl)c2)n1)NC(=O)c1cc(C(C)O)[nH]n1 (stereo unspecified) + Cc1nc(NC(=O)N2CCCC2C(N)=O)sc1-c1ccnc(C(C)(C)C(F)(F)F)c1
- viability, T/C [1]: 86.2%
- viability, T/C [2]: 77.4%
- viability, T/C [3]: 85.3%
- viability, T/C [4]: 101%
- viability, T/C [5]: 100%
- viability, T/C [6]: 93.8%
- viability, T/C [7]: 73.8%
- viability, T/C [8]: 60.6%
- viability, T/C [9]: 67.9%
- viability, T/C [10]: 78.9%
- viability, T/C [11]: 70%
- viability, T/C [12]: 67.4%
- viability, T/C [13]: 45.4%
- viability, T/C [14]: 40.1%
- viability, T/C [15]: 50.6%
- viability, T/C [16]: 42.5%
- viability, T/C [17]: 55%
- viability, T/C [18]: 55.9%
- viability, T/C [19]: 30.8%
- viability, T/C [20]: 31%
- viability, T/C [21]: 28.8%
- viability, T/C [22]: 24.7%
- viability, T/C [23]: 28.8%
- viability, T/C [24]: 28%
- viability, T/C [25]: 13%
- viability, T/C [26]: 15.4%
- viability, T/C [27]: 15.5%
- viability, T/C [28]: 15.3%
- viability, T/C [29]: 16.2%
- viability, T/C [30]: 15.3%
- viability, T/C [31]: 6.67%
- viability, T/C [32]: 7.22%
- viability, T/C [33]: 6.48%
- viability, T/C [34]: 6.6%
- viability, T/C [35]: 9.29%
- viability, T/C [36]: 7.26%

- pIC50 (second compound 0.0316 µM): > 7.50
- pIC50 (second compound 0.1 µM): > 7.50
- pIC50 (second compound 0.316 µM): > 7.50
- pIC50 (second compound 1 µM): > 7.50
- pIC50 (second compound 3.16 µM): > 7.50
- pIC50 (second compound 10 µM): > 7.50
Compound: CC1(C)CCC(Nc2ncc(C(F)(F)F)c(-c3c[nH]c4c(P(C)(C)=O)c(C#N)ccc34)n2)CN1 (stereo unspecified) + Cc1nc(NC(=O)N2CCCC2C(N)=O)sc1-c1ccnc(C(C)(C)C(F)(F)F)c1
- viability, T/C [1]: 35%
- viability, T/C [2]: 25.2%
- viability, T/C [3]: 21.7%
- viability, T/C [4]: 18.4%
- viability, T/C [5]: 7.32%
- viability, T/C [6]: 0.34%
- viability, T/C [7]: 27.1%
- viability, T/C [8]: 23.6%
- viability, T/C [9]: 25.7%
- viability, T/C [10]: 20.1%
- viability, T/C [11]: 5.12%
- viability, T/C [12]: 0.15%
- viability, T/C [13]: 23.2%
- viability, T/C [14]: 25.2%
- viability, T/C [15]: 23.2%
- viability, T/C [16]: 12.9%
- viability, T/C [17]: 4.57%
- viability, T/C [18]: 0.17%
- viability, T/C [19]: 18.1%
- viability, T/C [20]: 18.6%
- viability, T/C [21]: 14.2%
- viability, T/C [22]: 19.3%
- viability, T/C [23]: 3.08%
- viability, T/C [24]: 0.12%
- viability, T/C [25]: 11.7%
- viability, T/C [26]: 11.7%
- viability, T/C [27]: 8.82%
- viability, T/C [28]: 11.7%
- viability, T/C [29]: 1.63%
- viability, T/C [30]: 0.09%
- viability, T/C [31]: 5.1%
- viability, T/C [32]: 4.07%
- viability, T/C [33]: 4.35%
- viability, T/C [34]: 3.57%
- viability, T/C [35]: 0.59%
- viability, T/C [36]: 0.16%
